Consider 1 compound from patent EP4144350B1, “TREATMENT OR PREVENTION OF VASCULAR MALFORMATION” (Universitätsmedizin Greifswald, priority 2021, dated 2023).

One data set concerns colon-tumour xenografts. The note with it: cited from earlier work.
The test system of data set [1] is CCM3^-/- CI-huVECs in co-culture with CCM3^+/+ CI-huVECs. Description: Spike-in co-culture assay / apoptosis compound library screening: CCM3 knockout allele frequency by amplicon deep sequencing. In kind it is cell-based, human. The procedure:
Clonally expanded CI-huVEC lines with biallelic loss-of-function variants in the first coding exon of CCM3 have been described before or were established according to a published CRISPR/Cas9 genome editing protocol. Blood outgrowth endothelial cells (BOECs) were cultured in EGM-2 medium (Lonza, Basel, Switzerland) supplemented with 18 % FCS. With the approval of the local ethics committee (University Medicine Greifswald, Germany; No.: BB 047/14a), CCM1^-/- BOECs had been established previously from CCM1^+/- BOECs of a CCM1 mutation carrier with CRISPR/Cas9 genome editing. Mutant and wild-type ECs were co-cultured in 96-well plates under standard culture conditions with the indicated mutant-to-wild-type ratios. 2500 cells were seeded per well.
An apoptosis compound library with 189 small molecules that target apoptosis, survival and proliferation was used in a high throughput screening approach (HY-L003[HY-LD-000001651]; MedChem Express, Monmouth Junction, NJ, USA). Co-cultures were treated with 10 µM of each substrate for six days. Compounds were added 5 h and 3 days after cell seeding.
NSC59984 (IUPAC: (2E)-1-(4-Methyl-1-piperazinyl)-3-(5-nitro-2-furyl)-2-propen-1-one, HY19726, MedChem Express), was used for individual experiments with the indicated concentrations.
The fraction of mutant alleles in co-culture were analysed by amplicon deep sequencing or T7EI cleavage assay. In brief, genomic target regions were first amplified by PCR. For T7E1 cleavage assays, heteroduplexes were formed and digested with T7EI enzyme (New England Biolabs, Frankfurt am Main, Germany). Cleavage products were visualised by gel electrophoresis and analysed with the Image Lab software (v6.0, Bio-Rad, Hercules, CA, USA). For NGS analysis, sequencing adapters and individual barcodes were introduced in a second round of PCR [7]. Sequencing libraries were pooled and sequenced on a MiSeq instrument with 2 x 150 cycles (Illumina, San Diego, CA, USA). The data were analysed with the SeqNext software (JSI Medical Systems, Ettenheim, Germany).

Data set [2] concerns CCM3^-/- cells in fusion organoids. Description: hiPSC-derived vascular fusion organoids, fluorescence imaging. It is filed as cell-based, human. The note with it: 10 µM, continuous culture, imaged day 5, 7, 10. How it is done: hiPSCs were differentiated into vascular organoids according to the protocol of Wimmer and colleagues. Briefly, 800,000 hiPSCs were seeded in ultra-low attachment 6-well plates (Corning) in aggregation medium for 2 days until aggregates had formed. On day 0, mesodermal induction was initiated with CHIR99021 (Tocris Bioscience, Bristol, United Kingdom) and BMP-4 (Miltenyi Biotec) in N2B27 medium. Supplementation of VEGF-A (PeproTech, Inc., Rocky Hill, NJ, USA) and forskolin (Sigma-Aldrich) on day 3 induced vascular differentiation. On day 5, vascular aggregates were embedded in a collagen I-Matrigel matrix. VEGF-A, FGF-2 (Miltenyi Biotec), and FBS (Thermo Fisher Scientific) enriched StemPro-34 medium (Thermo Fisher Scientific) was added for vessel sprouting. Vascular network extraction was performed on day 10.

In another data set the test system is CCM3^-/- CI-huVECs. As to the kind of experiment: CyQuant cell proliferation assay combined with mutant allele frequencies, co-culture (mutant cells). It is filed as cell-based, human. As to conditions: six days. The procedure: Clonally expanded CI-huVEC lines with biallelic loss-of-function variants in the first coding exon of CCM3 have been described before or were established according to a published CRISPR/Cas9 genome editing protocol. Blood outgrowth endothelial cells (BOECs) were cultured in EGM-2 medium (Lonza, Basel, Switzerland) supplemented with 18 % FCS. With the approval of the local ethics committee (University Medicine Greifswald, Germany; No.: BB 047/14a), CCM1^-/- BOECs had been established previously from CCM1^+/- BOECs of a CCM1 mutation carrier with CRISPR/Cas9 genome editing. Mutant and wild-type ECs were co-cultured in 96-well plates under standard culture conditions with the indicated mutant-to-wild-type ratios. 2500 cells were seeded per well. The proliferation rate of mutant and wild-type ECs in monoculture was quantified with the CyQuant® Cell Proliferation Assay Kit (C7026, Thermo Fisher Scientific). To discriminate the proliferation rates of CCM3^+/+ and CCM3^-/- CI-huVEC in co-culture, the CyQuant® Cell Proliferation Assay results were combined with mutant allele frequencies that had been determined by amplicon deep sequencing. To analyse their sensitivity to apoptosis, mutant and wild-type ECs were seeded in 96-well plates with 15.000 cells per well, and treated with staurosporine ([…], Sigma-Aldrich, St. Louis, MO, USA) 24 h later. The Caspase-3 DEVD-R110 Fluorometric HTS Assay Kit (30009, Biotium, Fremont, CA, USA), the Cell Meter^TM Caspase 8 Activity Apoptosis Assay Kit (22798, AAT Bioquest, Sunnyvale, CA, USA), and the Cell Meter^TM Caspase 9 Activity Apoptosis Assay Kit (22799, AAT Bioquest) were used following the manufacturer's instructions.

Data set [3] deals with CCM3^+/+ and CCM3^-/- CI-huVECs. Description: Cell viability after compound treatment. As to conditions: 72 h after treatment (Fig. 15). In kind it is cell-based, human.

SMILES strings stand for the structures.

Regarding `CN1CCN(C(=O)/C=C/c2ccc([N+](=O)[O-])o2)CC1` [NSC59984, (E)-1-(4-methylpiperazin-1-yl)-3-(5-nitrofuran-2yl)prop-2-en-1-one], the “Adverse effects in xenograft mice” value with colon-tumour xenografts is on record as “Without apparent adverse effects”. In the data set with colon-tumour xenografts (mice), the “Growth of colon-tumour xenografts” value was “repressed the growth of colon-tumour xenografts in mice”. Moreover, the “Mutant EC expansion at high spike-in ratios” value in data set [1] (10 µM (Fig. 20)) was “blocked mutant EC expansion even at high spike-in ratios but did not decrease mutant allele frequencies”. In data set [1] (10 µM for six days, then seven additional days without treatment (Fig. 21)), the “Clonal expansion of mutant ECs after end of treatment” value was “still efficiently blocked after the end of NSC59984 treatment”. In data set [1] (10 µM of each compound, six days, added 5 h and 3 days after seeding, DMSO-treated co-culture controls 33.5 %), this compound came in with a Knockout allele frequencies of 10.2%. In addition, the “Mutant EC expansion after pretreatment of CCM3^-/- CI-huVECs before co-culture” value in data set [1] (6 days co-culture without additional treatment (Fig. 22)) is “completely prevented mutant EC expansion”. The “Clonal expansion of CCM3^-/- CI-huVECs in co-culture” value in data set [1] (different concentrations (Fig. 18)) is on record as “blocked the clonal expansion of CCM3^-/- CI-huVECs in a concentration-dependent manner”. Also, in data set [2], the “Proliferation of CCM3^-/- cells in fusion organoids” value was “inhibited the proliferation of CCM3^-/- cells in fusion organoids”. In addition, the results for the “Relative proliferation rate of CCM3^-/- CI-huVECs” value in the data set on CCM3^-/- CI-huVECs (1 µM), in the data set on CCM3^-/- CI-huVECs (5 µM) and in the data set with CCM3^-/- CI-huVECs (10 µM) were 4632%, 1671% and 419%, respectively. Besides, the “Cell viability differences between CCM3^+/+ and CCM3^-/- CI-huVECs” value in data set [3] is on record as “No cell viability differences”.
